Experimental data from patent US6576254B1, “Polyamino acid vesicles” (University of Strathclyde, priority 1998, dated 2003).

Tested on: A549 cells
Test: Transfection of A549 cells with POP:cholesterol vesicles complexed to pCMV-sport-β-gal plasmid (β-galactosidase activity, absorbance 420 nm)
Assay type: cell-based
Conditions: 50 μM chloroquine added during transfection with POP:cholesterol vesicle-plasmid complexes
Method: Transfection experiments were carried out with the endotoxin free pCMV-sport-β-gal plasmid. 96-well plates were seeded with A549 calls (10,000 cells well^−1, 50,000 cells mL^−1) and incubated overnight with DMEM/F10+10% foetal calf serum (FCS)-Life Sciences, UK in 2% CO2 at 37° C. […] The mixture was incubated for 4 h (2% CO2, 37° C.) after which the media and POP-plasmid complexes were removed and replaced with DMEM/F10+10% FCS (0.2 mL). Cells were fed daily (DMEM/F10+10% FCS) over a 48 h period at the end of which they were lysed by the addition of 0.05 mL triton X-100 buffer (0.1% triton X-100, 0.25M tris hydrochloride, pH=8.0). The cells were then frozen at −70° C. and thawed at room temperature and 0.5% bovine serum albumin in phosphate buffered saline (0.05 mL) added to each well. This was followed by the addition of 0.15 mL ONPG (o-nitrophenyl β-D-galactopyranoside) in buffer (0.06M sodium dibasic phosphate, 0.001M magnesium chloride, 0.01M potassium chloride, 0.05M β-mercaptoethanol, pH=8.0). β-galactosidase activity was estimated by measuring the absorbance (420 nm) on a microtitre plate reader.

CCN(CC)CCCC(C)Nc1ccnc2cc(Cl)ccc12 (stereo not shown) [chloroquine]
Effect on transfection levels: increase transfection levels
